Experimental data published in ChEMBL document CHEMBL1268995, “The structure and antimalarial activity of dispiro-1,2,4,5-tetraoxanes derived from (+)-dihydrocarvone” (Bioorg Med Chem Lett, 2010).
Values after ≈ are worked out from the molar mass of the structure shown.

What was measured:
Plasmodium falciparum [1] = test: Antimalarial activity against chloroquine-sensitive Plasmodium falciparum NF54; type: functional, organism-based
Plasmodium berghei = test: Antimalarial activity against Plasmodium berghei infected in NMRI mice (Mus musculus) assessed as reduction in parasitaemia at 100 mg/kg, perorally administered 1 day post-infection measured 3 day post-infection; type: functional; parameters: scale not given: the % may be the effect or the level left; conditions: route oral
Plasmodium falciparum [2] = test: Antimalarial activity against chloroquine-resistant Plasmodium falciparum K1; type: functional, organism-based
[3] = Partition coefficient, log P of the compound; type: physicochemical; conditions: octanol/water

Row | Compound | IC50 (Plasmodium falciparum [1]) [ng/mL] | Activity (Plasmodium berghei) [%] | IC50 (Plasmodium falciparum [2]) [ng/mL] | logP [3]
1 | C=C(C)[C@@H]1CC[C@@H](C)C2(C1)OOC1(C[C@H](C(=C)C)CC[C@H]1C)OO2 (stereo partly specified) | 6.6 (≈ 0.0196 µM) | 99.9 | 6.9 (≈ 0.0205 µM) | 
2 | C[C@@H]1CC[C@H]2[C@@H](C)C(=O)O[C@@H]3O[C@@]4(C)CC[C@@H]1[C@]32OO4 [ARTEMISININ] | 3.4 (≈ 0.012 µM) | 98 |  | 2.2
3 | CC(=O)[C@@H]1CC[C@@H](C)C2(C1)OOC1(C[C@H](C(C)=O)CC[C@H]1C)OO2 (stereo partly specified) | 2.1 (≈ 0.00617 µM) | 63 | 2.1 (≈ 0.00617 µM) | 
4 | CC(N)[C@@H]1CC[C@@H](C)C2(C1)OOC1(C[C@H](C(C)N)CC[C@H]1C)OO2 (stereo partly specified) | 82 (≈ 0.239 µM) | 99.1 | 54 (≈ 0.158 µM) | 
5 | C[C@@H]1CCCCC12OOC1(CCCC[C@@H]1C)OO2 (stereo partly specified) [WR-148999] |  | 99.7 |  | 
6 | C/C(=N\O)[C@@H]1CC[C@@H](C)C2(C1)OOC1(C[C@H](/C(C)=N/O)CC[C@H]1C)OO2 (stereo partly specified) | 18 (≈ 0.0486 µM) | <40 | 30 (≈ 0.081 µM) | 
